Target: Endoplasmic reticulum aminopeptidase 2 (Homo sapiens, UniProt Q6P179)
Assay: Activation of ERAP2 (unknown origin)-mediated Arg-AMC substrate hydrolysis after 60 mins by Rapidfire-MS analysis

Chain of Endoplasmic reticulum aminopeptidase 2 (Q6P179 whole entry): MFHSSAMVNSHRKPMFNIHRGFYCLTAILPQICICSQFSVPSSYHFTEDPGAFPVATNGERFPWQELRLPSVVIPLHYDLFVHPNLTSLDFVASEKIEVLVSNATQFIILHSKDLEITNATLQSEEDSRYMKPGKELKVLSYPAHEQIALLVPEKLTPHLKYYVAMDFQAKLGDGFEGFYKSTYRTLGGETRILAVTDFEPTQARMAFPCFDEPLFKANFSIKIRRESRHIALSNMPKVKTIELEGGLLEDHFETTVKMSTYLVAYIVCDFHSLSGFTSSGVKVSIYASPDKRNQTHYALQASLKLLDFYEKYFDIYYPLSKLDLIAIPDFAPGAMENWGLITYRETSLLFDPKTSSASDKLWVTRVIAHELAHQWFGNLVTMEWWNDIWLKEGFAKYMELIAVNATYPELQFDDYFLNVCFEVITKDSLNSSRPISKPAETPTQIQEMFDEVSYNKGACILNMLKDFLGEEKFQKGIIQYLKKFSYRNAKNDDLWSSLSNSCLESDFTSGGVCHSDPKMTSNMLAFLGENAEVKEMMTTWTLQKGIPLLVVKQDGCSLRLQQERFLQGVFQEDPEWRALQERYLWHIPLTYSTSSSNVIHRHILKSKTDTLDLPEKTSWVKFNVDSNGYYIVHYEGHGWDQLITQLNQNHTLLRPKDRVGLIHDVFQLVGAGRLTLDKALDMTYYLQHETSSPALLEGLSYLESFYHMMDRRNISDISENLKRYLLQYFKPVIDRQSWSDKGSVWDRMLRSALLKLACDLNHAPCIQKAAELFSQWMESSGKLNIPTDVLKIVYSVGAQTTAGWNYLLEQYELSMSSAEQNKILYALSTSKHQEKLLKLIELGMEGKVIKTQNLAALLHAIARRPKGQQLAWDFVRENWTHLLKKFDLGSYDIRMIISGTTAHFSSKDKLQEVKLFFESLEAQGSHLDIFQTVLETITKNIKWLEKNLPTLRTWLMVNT

IC50: > 158 µM
SMILES: C[C@@H]1C[C@H](O)[C@@]2(C)C(C(=O)O)=CCC[C@@H]2[C@@]1(C)CCc1ccoc1
